The source made the active and inactive calls. The calls are words filed in the database; no cut-off is given here.
What was measured:
[1] = system: A549; assay: Induction of apoptosis in human A549 cells assessed as late apoptotic cells at 10 uM after 48 hrs by Annexin V-FITC/propidium iodide staining based flow cytometry (reference value: 6.3%); type: functional
[2] = system: A549; assay: Cell cycle arrest in human A549 cells assessed as accumulation at G2 phase at 10 uM after 48 hrs by propidium iodide staining based flow cytometry (reference value: 14.49%); type: functional
[3] = system: Mus musculus; assay: Toxicity in Balb/c nude mouse xenografted with human A549 cells assessed as changes in body weight at 5 to 30 mg/kg, iv administered 7 times on day 14, 16, 18, 21, 23, 25, 28 post tumor implantation; type: organism-based; conditions: in vivo
[4] = system: A-375; assay: Antiproliferative activity against human A375 cells after 72 hrs by SRB assay; type: functional, cell-based; conditions: A-375, 72 h
[5] = system: A549; assay: Induction of apoptosis in human A549 cells assessed as necrotic cells at 10 uM after 48 hrs by Annexin V-FITC/propidium iodide staining based flow cytometry (reference value: 0.1%); type: functional
[6] = system: A549; assay: Cell cycle arrest in human A549 cells assessed as accumulation at S phase at 10 uM after 48 hrs by propidium iodide staining based flow cytometry (reference value: 45.31%); type: functional
[7] = system: A549; assay: Cell cycle arrest in human A549 cells assessed as accumulation at G1 phase at 10 uM after 48 hrs by propidium iodide staining based flow cytometry (reference value: 40.21%); type: functional
[8] = target: PI3K p110 beta/p85 alpha (Homo sapiens) (UniProt P27986+P42338); assay: Inhibition of human PI3K p110beta/p85alpha at 10 uM using phosphatidylinositol 4,5-bisphosphate as substrate after 30 mins by HTRF assay relative to control; type: protein-complex assay
PI3K p110 beta/p85 alpha (Homo sapiens), sequence (P27986 2-724 limits assumed): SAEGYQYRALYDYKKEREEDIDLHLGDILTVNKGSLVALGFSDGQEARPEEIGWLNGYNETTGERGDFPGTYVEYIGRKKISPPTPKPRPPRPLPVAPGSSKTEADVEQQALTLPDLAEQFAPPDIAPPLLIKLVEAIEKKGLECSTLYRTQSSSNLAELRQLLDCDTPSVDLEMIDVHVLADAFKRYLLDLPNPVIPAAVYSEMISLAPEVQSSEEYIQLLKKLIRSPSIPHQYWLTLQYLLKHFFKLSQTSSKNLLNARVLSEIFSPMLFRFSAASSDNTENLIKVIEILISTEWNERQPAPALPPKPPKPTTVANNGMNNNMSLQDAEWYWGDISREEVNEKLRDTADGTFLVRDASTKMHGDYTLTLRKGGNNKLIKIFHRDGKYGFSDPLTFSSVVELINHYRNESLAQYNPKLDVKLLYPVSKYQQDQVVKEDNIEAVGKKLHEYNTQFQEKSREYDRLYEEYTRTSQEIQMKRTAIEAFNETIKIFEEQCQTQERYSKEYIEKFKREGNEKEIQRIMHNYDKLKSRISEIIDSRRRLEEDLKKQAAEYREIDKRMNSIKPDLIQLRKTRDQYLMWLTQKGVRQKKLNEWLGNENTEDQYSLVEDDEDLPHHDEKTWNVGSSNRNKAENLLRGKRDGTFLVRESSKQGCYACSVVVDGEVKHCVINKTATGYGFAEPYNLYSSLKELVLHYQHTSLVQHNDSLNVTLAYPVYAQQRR
PI3K p110 beta/p85 alpha (Homo sapiens), sequence (P42338 whole entry partner): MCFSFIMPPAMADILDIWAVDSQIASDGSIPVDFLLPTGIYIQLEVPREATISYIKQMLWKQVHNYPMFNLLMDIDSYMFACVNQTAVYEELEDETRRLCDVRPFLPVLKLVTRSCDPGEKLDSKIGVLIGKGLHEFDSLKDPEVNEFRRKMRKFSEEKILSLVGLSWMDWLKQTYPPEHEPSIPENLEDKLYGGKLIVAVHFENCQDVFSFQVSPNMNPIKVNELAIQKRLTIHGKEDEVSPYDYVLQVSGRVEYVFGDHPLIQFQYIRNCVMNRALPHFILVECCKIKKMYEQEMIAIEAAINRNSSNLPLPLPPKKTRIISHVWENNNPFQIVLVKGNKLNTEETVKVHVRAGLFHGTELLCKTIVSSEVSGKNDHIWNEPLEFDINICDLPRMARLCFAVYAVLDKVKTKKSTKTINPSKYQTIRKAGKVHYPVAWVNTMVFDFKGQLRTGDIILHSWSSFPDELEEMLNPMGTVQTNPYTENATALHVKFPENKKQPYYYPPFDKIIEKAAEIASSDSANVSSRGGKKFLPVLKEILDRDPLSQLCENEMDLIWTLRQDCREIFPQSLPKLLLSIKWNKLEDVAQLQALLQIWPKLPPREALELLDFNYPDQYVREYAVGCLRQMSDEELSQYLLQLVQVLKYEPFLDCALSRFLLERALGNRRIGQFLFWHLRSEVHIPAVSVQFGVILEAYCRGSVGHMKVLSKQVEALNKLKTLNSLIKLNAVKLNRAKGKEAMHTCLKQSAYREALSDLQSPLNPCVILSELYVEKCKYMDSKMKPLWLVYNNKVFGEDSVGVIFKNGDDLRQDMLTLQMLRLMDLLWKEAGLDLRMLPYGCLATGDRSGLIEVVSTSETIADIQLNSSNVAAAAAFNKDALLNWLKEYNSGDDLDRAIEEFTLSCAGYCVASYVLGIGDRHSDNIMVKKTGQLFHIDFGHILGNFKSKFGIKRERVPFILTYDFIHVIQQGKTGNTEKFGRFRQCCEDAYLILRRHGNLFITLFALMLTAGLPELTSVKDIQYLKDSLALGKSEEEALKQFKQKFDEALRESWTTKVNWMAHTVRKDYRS

[9] = target: PI3-kinase p110-alpha/p85-alpha (Homo sapiens) (UniProt P27986+P42336); assay: Inhibition of human PI3K p110alpha/p85alpha at 10 uM using phosphatidylinositol 4,5-bisphosphate as substrate after 30 mins by HTRF assay relative to control; type: protein-complex assay
[10] = Antiproliferative activity against human U87 cells after 72 hrs by SRB assay; type: functional, cell-based, U-87MG ATCC; conditions: U-87 MG
[11] = system: A549; assay: Inhibition of mTORC2 in human A549 cells assessed as reduction in Akt phosphorylation at Ser-473 residue at 5 uM up to 2 hrs by Western blot method; type: cell-based
[12] = system: NCI-H460; assay: Antiproliferative activity against human NCI-H460 cells after 72 hrs by SRB assay; type: functional, cell-based; conditions: NCI-H460, 72 h
[13] = target: T1, Serine/threonine-protein kinase mTOR (Homo sapiens, UniProt P42345); assay: Inhibition of mTOR in human A549 cells assessed as reduction in p70S6K phosphorylation at T389 residue after 2 hrs by HTRF method; type: cell-based
[14] = target: Phosphatidylinositol 4,5-bisphosphate 3-kinase catalytic subunit gamma isoform (Homo sapiens) (UniProt P48736); assay: Inhibition of human PI3K p120gamma at 10 uM using phosphatidylinositol 4,5-bisphosphate as substrate after 30 mins by HTRF assay relative to control
Phosphatidylinositol 4,5-bisphosphate 3-kinase catalytic subunit gamma isoform (Homo sapiens), sequence (P48736 whole entry, looked up, canonical isoform): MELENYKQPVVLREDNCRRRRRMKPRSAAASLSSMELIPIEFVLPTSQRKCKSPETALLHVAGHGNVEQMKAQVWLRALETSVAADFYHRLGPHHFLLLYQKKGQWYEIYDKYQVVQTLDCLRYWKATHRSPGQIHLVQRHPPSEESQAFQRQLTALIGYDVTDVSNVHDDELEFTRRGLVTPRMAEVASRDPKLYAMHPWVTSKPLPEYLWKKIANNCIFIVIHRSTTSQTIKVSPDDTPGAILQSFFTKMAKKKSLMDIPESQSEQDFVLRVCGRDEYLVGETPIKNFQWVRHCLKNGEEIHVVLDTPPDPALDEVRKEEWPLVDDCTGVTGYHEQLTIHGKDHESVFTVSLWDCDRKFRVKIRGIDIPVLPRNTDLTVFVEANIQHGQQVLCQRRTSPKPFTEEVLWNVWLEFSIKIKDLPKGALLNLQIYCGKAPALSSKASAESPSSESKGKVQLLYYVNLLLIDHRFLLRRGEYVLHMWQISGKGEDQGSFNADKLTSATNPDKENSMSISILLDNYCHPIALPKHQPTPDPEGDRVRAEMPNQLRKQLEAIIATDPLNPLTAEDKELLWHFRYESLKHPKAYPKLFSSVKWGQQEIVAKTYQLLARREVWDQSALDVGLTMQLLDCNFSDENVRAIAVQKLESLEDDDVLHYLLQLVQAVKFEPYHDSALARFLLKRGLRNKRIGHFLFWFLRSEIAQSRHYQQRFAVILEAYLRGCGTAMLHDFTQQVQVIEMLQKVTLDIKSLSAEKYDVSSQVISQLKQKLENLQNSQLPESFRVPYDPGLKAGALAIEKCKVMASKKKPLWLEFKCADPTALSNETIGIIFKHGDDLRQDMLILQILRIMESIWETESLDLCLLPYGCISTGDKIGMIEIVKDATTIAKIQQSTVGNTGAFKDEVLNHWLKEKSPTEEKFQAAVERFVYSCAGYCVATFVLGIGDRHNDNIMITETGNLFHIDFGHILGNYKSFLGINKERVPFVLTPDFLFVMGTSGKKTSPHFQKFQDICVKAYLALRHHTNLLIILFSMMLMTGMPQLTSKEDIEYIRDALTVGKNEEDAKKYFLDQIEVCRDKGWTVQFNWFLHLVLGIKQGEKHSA

[15] = target: T1, Serine/threonine-protein kinase mTOR; assay: Inhibition of human N-terminal FLAG-tagged mTOR (1362-end residues) in presence of [gamma33P]ATP after 40 mins
[16] = system: HEK293; assay: Antiproliferative activity against HEK293 cells after 72 hrs by SRB assay; type: cell-based; conditions: Homo sapiens, HEK293, 72 h
[17] = system: Mus musculus; assay: Toxicity in Balb/c nude mouse xenografted with human A549 cells assessed as mortality at 5 to 30 mg/kg, iv administered 7 times on day 14, 16, 18, 21, 23, 25, 28 post tumor implantation; type: organism-based; conditions: in vivo
[18] = system: A549; assay: Antitumor activity against human A549 cells xenografted in Balb/c nude mouse assessed sa tumor growth inhibition at 30 mg/kg, iv administered 7 times on day 14, 16, 18, 21, 23, 25, 28 post tumor implantation measured after 1 week relative to control; type: functional; conditions: read-out: TGI
[19] = system: A549; assay: Induction of apoptosis in human A549 cells assessed as early apoptotic cells at 10 uM after 48 hrs by Annexin V-FITC/propidium iodide staining based flow cytometry (reference value: 3.6%); type: functional
[20] = target: PI3-kinase p110-delta/p85-alpha (Homo sapiens) (UniProt P27986+O00329); assay: Inhibition of human PI3K p110delta/p85alpha at 10 uM using phosphatidylinositol 4,5-bisphosphate as substrate after 30 mins by HTRF assay relative to control; type: protein-complex assay
[21] = system: A549; assay: Antiproliferative activity against human A549 cells after 72 hrs by SRB assay; type: functional, cell-based; conditions: A549, 72 h
[22] = system: MCF7; assay: Antiproliferative activity against human MCF7 cells after 72 hrs by SRB assay; type: functional, cell-based; conditions: MCF7, 72 h
[23] = system: A549; assay: Inhibition of mTORC1 in human A549 cells assessed as reduction in S6 phosphorylation at […] residues at 5 uM up to 2 hrs by Western blot method; type: cell-based
[24] = target: PI3-kinase p110-alpha/p85-alpha (Homo sapiens, UniProt P42336); assay: Inhibition of human PI3K p110alpha/p85alpha using phosphatidylinositol 4,5-bisphosphate as substrate after 30 mins by HTRF assay; type: protein-complex assay
PI3-kinase p110-alpha/p85-alpha, sequence (P27986 whole entry): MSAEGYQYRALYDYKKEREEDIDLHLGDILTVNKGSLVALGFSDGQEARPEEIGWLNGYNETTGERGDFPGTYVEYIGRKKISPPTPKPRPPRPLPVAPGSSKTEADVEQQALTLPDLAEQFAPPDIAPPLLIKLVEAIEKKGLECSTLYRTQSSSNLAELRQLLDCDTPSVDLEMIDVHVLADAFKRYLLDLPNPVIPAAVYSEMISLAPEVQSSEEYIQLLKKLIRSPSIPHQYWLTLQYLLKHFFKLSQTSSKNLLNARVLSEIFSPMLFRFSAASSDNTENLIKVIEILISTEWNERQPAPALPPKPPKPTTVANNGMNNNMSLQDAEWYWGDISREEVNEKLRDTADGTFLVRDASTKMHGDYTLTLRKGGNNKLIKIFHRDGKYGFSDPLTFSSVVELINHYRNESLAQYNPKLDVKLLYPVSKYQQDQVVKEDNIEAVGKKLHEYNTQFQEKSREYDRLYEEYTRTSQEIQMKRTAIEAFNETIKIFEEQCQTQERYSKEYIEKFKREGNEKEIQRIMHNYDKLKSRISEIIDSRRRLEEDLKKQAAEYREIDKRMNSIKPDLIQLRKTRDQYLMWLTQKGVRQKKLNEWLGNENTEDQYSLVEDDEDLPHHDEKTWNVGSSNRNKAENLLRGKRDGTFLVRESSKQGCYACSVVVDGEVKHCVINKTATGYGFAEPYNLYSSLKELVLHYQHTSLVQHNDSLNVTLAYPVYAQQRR
PI3-kinase p110-alpha/p85-alpha, sequence (P42336 whole entry): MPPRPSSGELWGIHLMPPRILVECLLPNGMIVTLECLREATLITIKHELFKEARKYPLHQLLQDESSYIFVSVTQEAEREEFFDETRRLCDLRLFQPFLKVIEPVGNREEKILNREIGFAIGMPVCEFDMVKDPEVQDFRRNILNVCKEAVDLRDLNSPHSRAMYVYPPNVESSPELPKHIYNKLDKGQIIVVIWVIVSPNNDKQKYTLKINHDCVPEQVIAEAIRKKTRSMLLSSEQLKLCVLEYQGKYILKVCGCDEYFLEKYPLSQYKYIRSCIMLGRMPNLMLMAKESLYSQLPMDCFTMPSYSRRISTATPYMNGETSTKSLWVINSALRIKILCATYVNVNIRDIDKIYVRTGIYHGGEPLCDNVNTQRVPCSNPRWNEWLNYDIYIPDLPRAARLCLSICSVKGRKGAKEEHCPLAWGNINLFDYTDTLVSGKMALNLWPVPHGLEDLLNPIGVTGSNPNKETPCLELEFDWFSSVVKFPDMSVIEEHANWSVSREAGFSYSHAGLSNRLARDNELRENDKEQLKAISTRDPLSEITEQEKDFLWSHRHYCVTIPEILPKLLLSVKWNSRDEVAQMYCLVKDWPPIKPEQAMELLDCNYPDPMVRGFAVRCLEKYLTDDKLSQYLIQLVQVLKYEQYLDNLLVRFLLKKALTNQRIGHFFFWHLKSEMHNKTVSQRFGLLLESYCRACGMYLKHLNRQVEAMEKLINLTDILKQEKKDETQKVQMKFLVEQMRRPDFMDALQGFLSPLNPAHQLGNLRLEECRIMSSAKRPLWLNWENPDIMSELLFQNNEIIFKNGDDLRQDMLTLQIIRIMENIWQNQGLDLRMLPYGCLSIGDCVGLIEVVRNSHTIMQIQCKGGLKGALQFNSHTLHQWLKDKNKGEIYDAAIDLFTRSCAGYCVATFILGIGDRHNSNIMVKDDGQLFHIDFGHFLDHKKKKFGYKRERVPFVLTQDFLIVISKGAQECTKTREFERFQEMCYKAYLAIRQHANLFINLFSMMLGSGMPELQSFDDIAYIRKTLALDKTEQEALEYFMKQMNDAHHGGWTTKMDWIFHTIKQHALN

[25] = system: A549; assay: Induction of apoptosis in human A549 cells assessed as live cells at 10 uM after 48 hrs by Annexin V-FITC/propidium iodide staining based flow cytometry (reference value: 90%); type: functional

Row | SMILES | Activity [1] [%] | Activity [2] [%] | IC50 [4] [µM] | Activity [5] [%] | Activity [6] [%] | Activity [7] [%] | inhibition [8] [%] | inhibition [9] [%] | IC50 [10] [µM] | inhibition [11] | IC50 [12] [µM] | inhibition [13] | inhibition [14] [%] | IC50 [15] [µM] | IC50 [16] [µM] | Activity [19] [%] | inhibition [20] [%] | IC50 [21] [µM] | IC50 [22] [µM] | inhibition [23] | other results
1 | C[C@H]1COCCN1c1cc(-c2ccc(NC(=O)Nc3cccnc3)cc2)nn2ccnc12 | 8.8 | 7.61 | 11.3 | 0 | 33.07 | 55.32 | 24 | 59 | 13.5 | Active | 0.47 | Dose-dependent effect | 40 | 0.067 | 9 | 3.5 | 19 | 0.05 | 40 | Active | Activity [3]: Non-Toxic; Activity [17]: Non-Toxic; inhibition in vivo at 30 mg/kg [18]: 37.8%; IC50 [24]: 4.42 µM; Activity [25]: 87.8%
2 | C[C@H]1COCCN1c1cc(-c2ccc(NC(=O)Nc3ccncc3)cc2)nn2ccnc12 | 6.3 | 13.86 | 5.8 | 0 | 35.19 | 50.95 | 33 | 64 | 7.4 | Active | 0.67 | Dose-dependent effect | 39 | 0.062 | 5.2 | 3.7 | 29 | 0.02 | 13.1 | Active | IC50 [24]: 3.11 µM; Activity [25]: 89.9%

From ChEMBL document CHEMBL4007445, “Design, synthesis, and biological evaluation of imidazo[1,2-b]pyridazine derivatives as mTOR inhibitors” (Eur J Med Chem, 2017)
